Source: US11976075B2, “Inhibitors of the MYST family of lysine acetyl transferases” (Isosterix, Inc., priority 2022, dated 2024)

Target: T1, Recombinant KAT6A/MOZ (488-778) protein (Homo sapiens, UniProt Q92794)
T1 construct: Recombinant KAT6A/MOZ (488-778) protein (Active motif, Catalog #81223); purchased Active Motif 81223
Test: Kat6a AlphaLISA Inhibition Screening Assay
Type: biochemical
Settings: 60′ pre-incubation; Table 2; read-out: Kat6A biochemical assay: IC50
Procedure: The Kat6a inhibitory activity of test compounds was determined using an Alpha Screen-based detection method. The assay reactions were conducted in a volume of 10 μL in Alpha Plate, White 384 well plate (cat #6008280, Perkin Elmer). The enzymatic reactions were performed in assay buffer pH 8.0 (50 mM Tris-HCl, 0.1 mM EDTA, 0.01% Tween-20, 1 mM Dithiothreitol, 0.1% BSA (fatty acid free) and 330 nM TSA (Trichostatin A)). 10 μL reaction volume consisting of 25 nM of Recombinant KAT6A/MOZ (488-778) protein (Active motif, Catalog #81223), 400 nM Acetyl coenzyme A (Catalog #A2056, Sigma), 200 nM of Histone H3 peptide [(amino acids 1-21), biotin-labeled (BPS Biosciences, Catalog #52011,)] and a 10-point dose response curve for test/tool compounds were prepared. Enzyme and compounds solution were pre-incubated in assay plate for 60 or 10 min at room temperature then substrate and Acetyl coenzyme A solution were added to the plate. After addition, the plate was sealed with adhesive seals and incubated for 120 minutes at room temperature.
After 120 minutes of incubation, 5 μL (10 μg/mL) of AlphaLISA anti-acetyl-Lysine acceptor beads (Perkin Elmer, Catalog #AL143C) were added to the plate and it was incubated for 60 minutes at room temperature. Then 10 μL (10 μg/mL) of Alpha Streptavidin donor beads (Perkin Elmer, Catalog #6760002S) were added to the plate which was further incubated for 60 minutes at room temperature. After incubation, the alpha signal was recorded by using Perkin Elmer Envision multi-mode reader.
NA means the compound was not active at the concentration tested. […] NT means not tested.

T1 sequence (Q92794 488-778): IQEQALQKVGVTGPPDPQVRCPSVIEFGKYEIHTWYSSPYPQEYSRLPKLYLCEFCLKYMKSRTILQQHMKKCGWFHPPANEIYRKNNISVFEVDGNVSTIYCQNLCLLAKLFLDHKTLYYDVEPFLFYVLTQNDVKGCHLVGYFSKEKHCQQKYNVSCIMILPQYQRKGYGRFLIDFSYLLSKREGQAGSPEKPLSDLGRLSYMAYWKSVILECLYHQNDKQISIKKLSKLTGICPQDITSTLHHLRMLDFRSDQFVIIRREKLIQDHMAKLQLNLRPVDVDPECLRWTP

Compound | IC50 [µM]
C#CC(=O)NCc1cnn(Cc2cc(OC)c3c(NS(=O)(=O)c4cc(CC)ccc4OC)noc3c2)c1 [compound 69, N-((1-((3-((5-ethyl-2-methoxyphenyl)sulfonamido)-4-methoxybenzo[d]isoxazol-6-yl)methyl)-1H-pyrazol-4-yl)methyl) propiolamide] | ≤ 10
COc1ccccc1S(=O)(=O)Nc1noc2cc(Cn3cc(CNS(=O)(=O)c4c(F)c(F)c(F)c(F)c4F)cn3)cc(OC)c12 [compound 70, 2,3,4,5,6-pentafluoro-N-((1-((4-methoxy-3-((2-methoxyphenyl)sulfonamido)benzo[d]isoxazol-6-yl)methyl)-1H-pyrazol-4-yl)methyl)benzenesulfonamide] | ≤ 10
C#CC(=O)N1CCN(c2cccc(-c3cc(OC)c4c(NS(=O)(=O)c5c(OC)cccc5OC)noc4c3)c2)CC1 [compound 71, 2,6-dimethoxy-N-(4-methoxy-6-(3-(4-propioloylpiperazin-1-yl)phenyl)benzo[d]isoxazol-3-yl) benzenesulfonamide] | ≤ 10

Same assay, conditions: 60′ pre-incubation; Table 3; read-out: Kat6A Biochemical assay: IC50

Compound | IC50 [µM]
C=CS(=O)(=O)N1CCN(c2cccc(-c3cc(OC)c4c(NS(=O)(=O)c5c(OC)cccc5OC)noc4c3)c2)CC1 [compound 72, 2,6-dimethoxy-N-(4-methoxy-6-(3-(4-(vinylsulfonyl)piperazin-1-yl)phenyl)benzo[d]isoxazol-3-yl) benzenesulfonamide] | ≤ 10
COc1cccc(OC)c1S(=O)(=O)Nc1noc2cc(-c3cccc(N4CCN(C(=O)CCl)CC4)c3)cc(OC)c12 [compound 73, N-(6-(3-(4-(2-chloroacetyl)piperazin-1-yl)phenyl)-4-methoxybenzo[d]isoxazol-3-yl)-2,6-dimethoxybenzenesulfonamide] | ≤ 10
C#CC(=O)N1CCN(c2cccc(-c3cc(OC)c4c(NS(=O)(=O)c5ccccc5OC)noc4c3)c2)CC1 [compound 74, 2-methoxy-N-(4-methoxy-6-(3-(4-propioloylpiperazin-1-yl)phenyl)benzo[d]isoxazol-3-yl)benzenesulfonamide] | ≤ 10
C=CC(=O)N1CCC(c2ccccc2-c2cc(OC)c3c(NS(=O)(=O)c4c(OC)cccc4OC)noc3c2)C1 (centres unmarked) [compound 75, N-(6-(2-(1-acryloylpyrrolidin-3-yl)phenyl)-4-methoxybenzo[d]isoxazol-3-yl)-2,6-dimethoxybenzenesulfonamide] | > 10
C#CC(=O)NCc1cnn(Cc2cc(OC)c3c(NS(=O)(=O)c4ccccc4OC)n[nH]c3c2)c1 [compound 76, N-((1-((4-methoxy-3-((2-methoxyphenyl)sulfonamido)-1H-indazol-6-yl)methyl)-1H-pyrazol-4-yl)methyl)propiolamide] | ≤ 10
C=CS(=O)(=O)NC1CCN(Cc2cc(OC)c3c(NS(=O)(=O)c4ccccc4OC)noc3c2)CC1 [compound 77, 2-methoxy-N-(4-methoxy-6-((4-(vinylsulfonamido)piperidin-1-yl)methyl)benzo[d]isoxazol-3-yl)benzenesulfonamide] | ≤ 10
COc1ccccc1S(=O)(=O)Nc1noc2cc(Cn3cc(CNS(=O)(=O)c4ccc(F)cc4)cn3)cc(OC)c12 [compound 78, N-(6-((4-(((4-fluorophenyl)sulfonamido)methyl)-1H-pyrazol-1-yl)methyl)-4-methoxybenzo[d]isoxazol-3-yl)-2-methoxybenzenesulfonamide] | ≤ 10
COc1ccccc1S(=O)(=O)Nc1noc2cc(Cn3cc(CNS(=O)(=O)c4ccccc4)cn3)cc(OC)c12 [compound 79, 2-methoxy-N-(4-methoxy-6-((4-(phenylsulfonamidomethyl)-1H-pyrazol-1-yl)methyl)benzo[d]isoxazol-3-yl)benzenesulfonamide] | ≤ 10
COc1ccccc1S(=O)(=O)Nc1noc2cc(Cn3cc(CNS(=O)(=O)c4cc(F)c(F)c(F)c4)cn3)cc(OC)c12 [compound 80, 3,4,5-trifluoro-N-((1-((4-methoxy-3-((2-methoxyphenyl)sulfonamido)benzo[d]isozolol-6-yl)methyl)-1H-pyrazol-4-yl)methyl) benzenesulfonamide] | ≤ 10
C=CS(=O)(=O)NCc1cnn(Cc2cc(OC)c3c(NS(=O)(=O)c4cc(CC)ccc4OC)noc3c2)c1 [compound 81, 5-ethyl-2-methoxy-N-(4-methoxy-6-((4-(vinylsulfonamidomethyl)-1H-pyrazol-1-yl)methyl)benzo[d]isoxazol-3-yl)benzenesulfonamide] | ≤ 10
COc1ccccc1S(=O)(=O)Nc1noc2cc(Cn3ncc4c3CN(S(=O)(=O)c3c(F)c(F)c(F)c(F)c3F)C4)cc(OC)c12 [compound 82] | ≤ 10
COc1ccccc1S(=O)(=O)Nc1noc2cc(Cn3cc(CNS(=O)(=O)c4ccc(Cl)nc4)cn3)cc(OC)c12 [compound 83, 6-chloro-N-((1-((4-methoxy-3-((2-methoxyphenyl)sulfonamido)benzo[d]isoxazol-6-yl)methyl)-1H-pyrazol-4-yl)methyl)pyridine-3-sulfonamide] | ≤ 10
COc1ccccc1S(=O)(=O)Nc1noc2cc(Cn3cc(CNS(=O)(=O)c4cccnc4Cl)cn3)cc(OC)c12 [compound 84, 2-chloro-N-((1((4methoxy3((2methoxyphenyl)sulfonamido)benzo[d]isoxazol-6-yl)methyl)-1H-pyrazol-4-yl)methyl) pyridine-3-sulfonamide] | ≤ 10
C#CC(=O)NCc1cnn(Cc2cc(OC)c3c(NS(=O)(=O)c4cc(C(=O)NC)ccc4OC)noc3c2)c1 [compound 85, 4-methoxy-3-(N-(4-methoxy-6-((4-(propiolamidomethyl)-1H-pyrazol-1-yl)methyl)benzo[d]isoxazol-3-yl)sulfamoyl)-N-methylbenzamide] | ≤ 10
C#CC(=O)NCc1cnn(Cc2cc(OC)c3c(NS(=O)(=O)c4cc(C(=O)O)ccc4OC)noc3c2)c1 [compound 86, 4-methoxy-3-(N-(4-methoxy-6-((4-(propiolamidomethyl)-1H-pyrazol-1-yl)methyl)benzo[d]isoxazol-3-yl)sulfamoyl)benzoic acid] | > 10
C#CC(=O)N1CCC(c2cccc(-c3cc(OC)c4c(NS(=O)(=O)c5c(OC)cccc5OC)noc4c3)c2)C1 (centres unmarked) [compound 87, 2,6-dimethoxy-N-(4-methoxy-6-(3-(1-propioloylpyrrolidin-3-yl)phenyl)benzo[d]isoxazol-3-yl)benzenesulfonamide] | ≤ 10
C#CC(=O)NCCOCc1cc(OC)c2c(NS(=O)(=O)c3cc(CC)ccc3OC)noc2c1 [compound 88, N-(2-((3-((5-ethyl-2-methoxyphenyl)sulfonamido)-4-methoxybenzo[d]isoxazol-6-yl)methoxy)ethyl)propiolamide] | ≤ 10
C#CC(=O)NCCCOCc1cc(OC)c2c(NS(=O)(=O)c3cc(CC)ccc3OC)noc2c1 [compound 89, N-(3-((3-((5-ethyl-2-methoxyphenyl)sulfonamido)-4-methoxybenzo[d]isoxazol-6-yl)methoxy)propyl) propiolamide] | ≤ 10
C=CS(=O)(=O)NCCCOCc1cc(OC)c2c(NS(=O)(=O)c3cc(CC)ccc3OC)noc2c1 [compound 90, 5-ethyl-2-methoxy-N-(4-methoxy-6-((3-(vinylsulfonamido)propoxy)methyl)benzo[d]isoxazol-3-yl)benzenesulfonamide] | ≤ 10
C#CC(=O)NCc1cnn(-c2cc(C)nc(C(=O)NNS(=O)(=O)c3ccccc3F)c2)c1 [compound 91, N-((1-(2-(2-((2-fluorophenyl)sulfonyl) hydrazine-1-carbonyl)-6-methylpyridin-4-yl)-1H-pyrazol-4-yl)methyl) propiolamide] | ≤ 10
